In general, IC50 refers to the concentration at which inhibition is half-maximal.

In this assay the target is T1, human DGAT1 enzyme (Homo sapiens, UniProt O75907).
T1 construct: made in house; host or cells: Sf9 insect cells (microsomal membranes)
T1 sequence (O75907 1-488): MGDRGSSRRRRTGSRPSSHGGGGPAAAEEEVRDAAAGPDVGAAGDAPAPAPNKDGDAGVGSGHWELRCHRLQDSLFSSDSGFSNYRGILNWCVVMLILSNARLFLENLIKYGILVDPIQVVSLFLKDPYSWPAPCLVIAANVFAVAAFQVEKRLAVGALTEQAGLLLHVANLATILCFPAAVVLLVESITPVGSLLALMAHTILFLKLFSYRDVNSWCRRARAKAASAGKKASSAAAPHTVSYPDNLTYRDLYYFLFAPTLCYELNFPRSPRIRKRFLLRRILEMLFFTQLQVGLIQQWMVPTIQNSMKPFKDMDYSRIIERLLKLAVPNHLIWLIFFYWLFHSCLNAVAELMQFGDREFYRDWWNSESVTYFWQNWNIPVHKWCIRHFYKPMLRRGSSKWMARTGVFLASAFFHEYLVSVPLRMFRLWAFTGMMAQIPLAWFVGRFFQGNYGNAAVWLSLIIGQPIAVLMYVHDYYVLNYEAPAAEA
In words: in vitro DGAT1 inhibition assay (microsomes, [14C]-palmitoyl-CoA, SPA beads). The format is biochemical. Conditions: human DGAT1 expressed in Sf9 insect cells, microsomes; 2 hours at room temperature; read-out: IC50. On the procedure: The in vitro assay to identify DGAT1 inhibitors uses human DGAT1 enzyme expressed in Sf9 insect cells prepared as microsomes. The reaction was initiated by the addition of the combined substrates 1,2-dioleoyl-sn-glycerol and [^14C]-palmitoyl-Co A and incubated with test compounds and microsomal membranes for 2 hours at room temperature. The assay was stopped by adding 0.5 mg wheat germ agglutinin beads in assay buffer with 1% Brij-35 and 1% 3-cholamidopropyldimethyl-ammonio-1-propane sulfonate. Plates were sealed with TopSeal and incubated for 18 hours to allow the radioactive triglyceride product to come into proximity with the bead. Plates were read on a TopCount instrument.
Percent inhibition was calculated as the percent of (test compound inhibition minus non-specific binding) relative to (total binding minus non-specific binding). IC50 values were determined by curve fitting the data to a Sigmoidal dose-response in GraphPad Prism utilizing the following equation:
Y=A+(B−A)/(1+10̂((Log IC50−X))),
where A and B are the bottom and top of the curve (highest and lowest inhibition), respectively, and X is the logarithm of concentration.
Regarding `Cc1c(C(=O)Nc2ccc(N3CCN(C(=O)Nc4ccccc4F)CC3)nc2)oc2c(F)cccc12` [Example 9, 4-(5-(7-fluoro-3-methylbenzofuran-2-carboxamido)pyridin-2-yl)-N-(2-fluorophenyl)piperazine-1-carboxamide], the IC50 was 49 nM. The value for `COc1ccc(-c2ccc3oc(C(=O)Nc4ccc(N5CCC(OCc6cccc(C(=O)O)c6)CC5)nc4)c(C)c3c2)cc1` [Example 64, 3-((1-(5-(5-(4-methoxyphenyl)-3-methylbenzofuran-2-carboxamido)pyridin-2-yl)piperidin-4-yloxy)methyl)benzoic acid] was 65 nM. As to `Cc1c(C(=O)Nc2ccc(N3CCN(C(=O)Nc4ccccc4F)CC3)nc2)oc2ccc(-c3ncco3)cc12` [Example 82, N-(2-fluorophenyl)-4-(5-(3-methyl-5-(oxazol-2-yl)benzofuran-2-carboxamido)pyridin-2-yl)piperazine-1-carboxamide], the concentration for half-maximal inhibition (IC50) worked out at 104 nM.

Regarding `CCOC(=O)c1ccccc1NC(=O)N1CCN(c2ccc(NC(=O)c3oc4ccc(-c5ccc(F)cc5)cc4c3C)cn2)CC1` [Example 38, ethyl 2-(4-(5-(5-(4-fluorophenyl)-3-methylbenzofuran-2-carboxamido)pyridin-2-yl)piperazine-1-carboxamido)benzoate], the half-inhibitory concentration (IC50) was found to be 1010 nM. Regarding `Cc1c(C(=O)Nc2ccc(N3CCC(OCc4cccc(C(=O)O)c4)CC3)nc2)sc2ccc(-c3ccccc3)cc12` [Example 51, 3-((1-(5-(3-methyl-5-phenylbenzo[b]thiophene-2-carboxamido)pyridin-2-yl)piperidin-4-yloxy)methyl)benzoic acid], the IC50 turned out to be 28 nM. The same measure for `Cc1c(C(=O)Nc2ccc(N3CCC(OCc4cccc(C(=O)O)c4)CC3)nc2)oc2ccc(-c3ccccc3F)cc12` [Example 25, 3-((1-(5-(5-(2-fluorophenyl)-3-methylbenzofuran-2-carboxamido)pyridin-2-yl)piperidin-4-yloxy)methyl)benzoic acid]: 93 nM; for `Cc1c(C(=O)Nc2ccc(N3CCC(OCc4cccc(C(=O)O)c4)CC3)nc2)oc2ccc(-c3cccc(F)c3)cc12` [Example 29, 3-((1-(5-(5-(3-fluorophenyl)-3-methylbenzofuran-2-carboxamido)pyridin-2-yl)piperidin-4-yloxy)methyl)benzoic acid]: 134 nM. The same measure for `Cc1ccc2c(C)c(C(=O)Nc3ccc(N4CCC(OCc5cccc(C(=O)O)c5)CC4)nc3)oc2c1C` [Example 87, 3-((1-(5-(3,6,7-trimethylbenzofuran-2-carboxamido)pyridin-2-yl)piperidin-4-yloxy)methyl)benzoic acid]: 22 nM; for `Cc1c(C(=O)Nc2ccc(N3CCC(COc4cccc(C(=O)O)c4)CC3)nc2)oc2ccc(-c3ccccc3)cc12` [Example 18, 3-((1-(5-(3-methyl-5-phenylbenzofuran-2-carboxamido)pyridin-2-yl)piperidin-4-yl)methoxy)benzoic acid]: 52 nM. The same measure for `Cc1c(C(=O)Nc2ccc(N3CCN(C(=O)Nc4ccccc4C(=O)O)CC3)nc2)oc2ccc(-c3ccc(F)cc3)cc12` [Example 36, 2-(4-(5-(5-(4-fluorophenyl)-3-methylbenzofuran-2-carboxamido)pyridin-2-yl)piperazine-1-carboxamido)benzoic acid]: 90 nM; for `Cc1c(C(=O)Nc2ccc(N3CCC(OCc4cccc(C(=O)O)c4)CC3)nc2)oc2ccc(-c3ncco3)cc12` [Example 86, 3-((1-(5-(3-methyl-5-(oxazol-2-yl)benzofuran-2-carboxamido)pyridin-2-yl)piperidin-4-yloxy)methyl)benzoic acid]: 305 nM. With `Cc1c(C(=O)Nc2ccc(N3CCC(COc4cccc(C(=O)O)c4)CC3)nc2)oc2ccccc12` [Example 91, 3-((1-(5-(3-methylbenzofuran-2-carboxamido)pyridin-2-yl)piperidin-4-yl)methoxy)benzoic acid], the half-inhibitory concentration (IC50) turned out to be 84 nM. Regarding `COc1ccccc1-c1ccc2oc(C(=O)Nc3ccc(N4CCC(OCc5cccc(C(=O)O)c5)CC4)nc3)c(C)c2c1` [Example 73, 3-((1-(5-(5-(2-methoxyphenyl)-3-methylbenzofuran-2-carboxamido)pyridin-2-yl)piperidin-4-yloxy)methyl)benzoic acid], the concentration for half-maximal inhibition (IC50) turned out to be 108 nM.

Regarding `Cc1c(C(=O)Nc2ccc(N3CC[C@@H](COc4ccc(C(=O)O)cc4)C3)nc2)oc2ccc(-c3ccccc3)cc12` [Example 80, (R)-4-((1-(5-(3-methyl-5-phenylbenzofuran-2-carboxamido)pyridin-2-yl)pyrrolidin-3-yl)methoxy)benzoic acid], the IC50 stood at 600 nM. The same measure for `CCOC(=O)c1ccccc1NC(=O)N1CCN(c2ccc(NC(=O)c3sc4ccc(-c5ccccc5)cc4c3C)cn2)CC1` [Example 50, ethyl 2-(4-(5-(3-methyl-5-phenylbenzo[b]thiophene-2-carboxamido)pyridin-2-yl)piperazine-1-carboxamido)benzoate]: 2330 nM. The same measure for `Cc1c(C(=O)Nc2ccc(N3CC[C@H](COc4ccc(C(=O)O)cc4)C3)nc2)oc2ccc(-c3ccccc3)cc12` [Example 81, (S)-4-((1-(5-(3-methyl-5-phenylbenzofuran-2-carboxamido)pyridin-2-yl)pyrrolidin-3-yl)methoxy)benzoic acid]: 1060 nM; for `CCOC(=O)c1ccccc1NC(=O)N1CCN(c2ccc(NC(=O)c3oc4ccc(-c5ccc(OC)cc5)cc4c3C)cn2)CC1` [Example 65, ethyl 2-(4-(5-(5-(4-methoxyphenyl)-3-methylbenzofuran-2-carboxamido)pyridin-2-yl)piperazine-1-carboxamido)benzoate]: 454 nM; for `COC(=O)c1cccc(COC2CCN(c3ccc(NC(=O)c4oc5ccc(-c6ccc(F)cc6)cc5c4C)cn3)CC2)c1` [Example 35, methyl 3-((1-(5-(5-(4-fluorophenyl)-3-methylbenzofuran-2-carboxamido)pyridin-2-yl)piperidin-4-yloxy)methyl)benzoate]: 38 nM.

On to `Cc1c(C(=O)Nc2ccc(N3CCC(COc4cccc(C(=O)O)c4)CC3)nc2)oc2ccc(-c3ccc(F)cc3)cc12` [Example 39, 3-((1-(5-(5-(4-fluorophenyl)-3-methylbenzofuran-2-carboxamido)pyridin-2-yl)piperidin-4-yl)methoxy)benzoic acid], for which the IC50 came out at 55 nM.

With `Cc1c(C(=O)Nc2ccc(N3CCN(C(=O)Nc4ccccc4F)CC3)nc2)sc2ccc(-c3cccc(F)c3)cc12` [Example 54, N-(2-fluorophenyl)-4-(5-(5-(3-fluorophenyl)-3-methylbenzo[b]thiophene-2-carboxamido)pyridin-2-yl)piperazine-1-carboxamide], the IC50 was 220 nM.

For `Cc1c(C(=O)Nc2ccc(N3CCN(C(=O)Nc4ccccc4C(=O)O)CC3)nc2)oc2ccc(-c3cccc(F)c3)cc12` [Example 31, 2-(4-(5-(5-(3-fluorophenyl)-3-methylbenzofuran-2-carboxamido)pyridin-2-yl)piperazine-1-carboxamido)benzoic acid], the half-maximal inhibitory concentration (IC50) was determined as 84 nM. The same measure for `Cc1c(C(=O)Nc2ccc(N3CCN(C(=O)Nc4ccccc4F)CC3)nc2)oc2ccc(-c3ccccc3F)cc12` [Example 20, N-(2-fluorophenyl)-4-(5-(5-(2-fluorophenyl)-3-methylbenzofuran-2-carboxamido)pyridin-2-yl)piperazine-1-carboxamide]: 115 nM. Regarding `Cc1c(C(=O)Nc2ccc(N3CCN(C(=O)Nc4ccccc4F)CC3)nc2)sc2ccc(-c3ccccc3)cc12` [Example 46, N-(2-fluorophenyl)-4-(5-(3-methyl-5-phenylbenzo[b]thiophene-2-carboxamido)pyridin-2-yl)piperazine-1-carboxamide], the IC50 was 84 nM.

For `Cc1c(C(=O)Nc2ccc(-c3ccc(OCC(C)(C)C(=O)O)nc3)cc2)oc2ccc(-c3ccccc3)cc12` [Example 58, 2,2-dim ethyl-3-(5-(4-(3-methyl-5-phenylbenzofuran-2-carboxamido)phenyl)pyridin-2-yloxy)propanoic acid], the half-maximal inhibitory concentration (IC50) was 13 nM. The value for `Cc1c(C(=O)Nc2ccc(N3CCN(C(=O)C(O)C(F)(F)F)CC3)nc2)oc2ccccc12` (stereo not shown) [Example 3, 3-methyl-N-(6-(4-(3,3,3-trifluoro-2-hydroxypropanoyl)piperazin-1-yl)pyridin-3-yl)benzofuran-2-carboxamide] was 589 nM.

These data come from patent publication US20120172369A1 (priority 2009, published 2012).
